Measured values taken from patent US20210071180A1, “MICRORNA 584-5P COMPOSITIONS AND METHODS FOR TREATING CANCER” (BOARD OF REGENTS, THE UNIVERSY OF TEXAS SYSTEM, priority 2018, published 2021).

Test system: MB cells
Assay: Immunofluorescence of mitotic spindles / mitotic catastrophe
Assay type: cell-based
Experimental: DNA is stained with DAPI (blue), whereas spindle is stained with β-tubulin (red) (below).
Immunofluorescence and Western blot analysis Immunofluorescence analyses was carried out on cells fixed in 4% paraformaldehyde (Imam, J. S. et al. PLoS One 7, e52397, (2012)). […]
VCR disrupts the integrity of the mitotic spindle and destabilizes microtubules (George, P., Journey, L. J. & Goldstein, M. N. J Natl Cancer Inst 35, 355-375 (1965)). […] In FIG. 12A, the p-values were calculated using standard Student t-tests. […] The p-values were calculated using standard Student t-tests. […] In FIG. 11F, the p-values were calculated using standard Student t-tests. […] In FIG. 11H, The p-values were calculated using standard Student t-tests. […] Quantitative real-time PCR. […]

## miR-584-5p: microRNA mimic; nucleotide sequence UUAUGGUUUGCCUGGGACUGAG (SEQ ID NO: 1); purchased from Thermofisher (chemistry not given here)
miR-584-5p-overexpressing MB cells
  mitotic catastrophe features: many cells with multipolar metaphase/anaphase, spindles with unorganized poles, micronuclei, and aneuploidy
β-tubulin/DAPI staining
  mitotic spindle defects: variety of mitotic spindle defects
